Results from PubChem BioAssay AID1259407 (Chemical Carcinogenesis Research Information System (CCRIS), 2018).
Active and inactive are the calls of the source. The rule behind the calls is not given here.

Test system: CCRIS mutagenicity, Ames/micronucleus/aberration tests
Assay: CCRIS mutagenicity studies
[1] = Test System: AMES SALMONELLA TYPHIMURIUM, Strain/Indicator: TA98, Metabolic Activation: RAT, LIVER, S-9, AROCLOR 1254, Method: STANDARD PLATE
[2] = Test System: AMES SALMONELLA TYPHIMURIUM, Strain/Indicator: TA100, Metabolic Activation: RAT, LIVER, S-9, AROCLOR 1254, Method: STANDARD PLATE
[3] = Test System: AMES SALMONELLA TYPHIMURIUM, Strain/Indicator: TA1535, Metabolic Activation: RAT, LIVER, S-9, AROCLOR 1254, Method: STANDARD PLATE
[4] = Test System: AMES SALMONELLA TYPHIMURIUM, Strain/Indicator: TA1538, Metabolic Activation: RAT, LIVER, S-9, AROCLOR 1254, Method: STANDARD PLATE
[5] = Test System: AMES SALMONELLA TYPHIMURIUM, Strain/Indicator: TA98, Metabolic Activation: NONE, Method: STANDARD PLATE
[6] = Test System: AMES SALMONELLA TYPHIMURIUM, Strain/Indicator: TA100, Metabolic Activation: NONE, Method: STANDARD PLATE

Measured: mutagenic call

CC(NC(=O)COc1ccc(Cl)cc1Cl)C(=O)O (centres undefined)
inactive: Test System: AMES SALMONELLA TYPHIMURIUM, Strain/Indicator: TA97, Metabolic Activation: RAT, LIVER, S-9, AROCLOR 1254, Method: STANDARD PLATE inactive; negative | Test System: AMES SALMONELLA TYPHIMURIUM, Strain/Indicator: TA97, Metabolic Activation: WOODCHUCK, LIVER, S-9, 3-METHYLCHOLANTHRENE, Method: STANDARD PLATE inactive; negative | [1] inactive; negative | Test System: AMES SALMONELLA TYPHIMURIUM, Strain/Indicator: TA98, Metabolic Activation: WOODCHUCK, LIVER, S-9, 3-METHYLCHOLANTHRENE, Method: STANDARD PLATE inactive; negative | [2] inactive; negative | Test System: AMES SALMONELLA TYPHIMURIUM, Strain/Indicator: TA100, Metabolic Activation: WOODCHUCK, LIVER, S-9, 3-METHYLCHOLANTHRENE, Method: STANDARD PLATE inactive; negative | [3] inactive; negative | Test System: AMES SALMONELLA TYPHIMURIUM, Strain/Indicator: TA1535, Metabolic Activation: WOODCHUCK, LIVER, S-9, 3-METHYLCHOLANTHRENE, Method: STANDARD PLATE inactive; negative | [4] inactive; negative | Test System: AMES SALMONELLA TYPHIMURIUM, Strain/Indicator: TA1538, Metabolic Activation: WOODCHUCK, LIVER, S-9, 3-METHYLCHOLANTHRENE, Method: STANDARD PLATE inactive; negative

C=C(C)C(=O)OCCCCCCOC(=O)C(=C)C
inactive: [5] inactive; negative | [1] inactive; negative | Test System: AMES SALMONELLA TYPHIMURIUM, Strain/Indicator: TA98, Metabolic Activation: RAT, LIVER, S-9, SODIUM PHENOBARBITAL, Method: STANDARD PLATE inactive; negative | [6] inactive; negative | [2] inactive; negative | Test System: AMES SALMONELLA TYPHIMURIUM, Strain/Indicator: TA100, Metabolic Activation: RAT, LIVER, S-9, SODIUM PHENOBARBITAL, Method: STANDARD PLATE inactive; negative | Test System: AMES SALMONELLA TYPHIMURIUM, Strain/Indicator: TA1535, Metabolic Activation: NONE, Method: STANDARD PLATE inactive; negative | [3] inactive; negative | Test System: AMES SALMONELLA TYPHIMURIUM, Strain/Indicator: TA1535, Metabolic Activation: RAT, LIVER, S-9, SODIUM PHENOBARBITAL, Method: STANDARD PLATE inactive; negative | Test System: AMES SALMONELLA TYPHIMURIUM, Strain/Indicator: TA1537, Metabolic Activation: NONE, Method: STANDARD PLATE inactive; negative | Test System: AMES SALMONELLA TYPHIMURIUM, Strain/Indicator: TA1537, Metabolic Activation: RAT, LIVER, S-9, AROCLOR 1254, Method: STANDARD PLATE inactive; negative | Test System: AMES SALMONELLA TYPHIMURIUM, Strain/Indicator: TA1537, Metabolic Activation: RAT, LIVER, S-9, SODIUM PHENOBARBITAL, Method: STANDARD PLATE inactive; negative | Test System: AMES SALMONELLA TYPHIMURIUM, Strain/Indicator: TA1538, Metabolic Activation: NONE, Method: STANDARD PLATE inactive; negative | [4] inactive; negative | Test System: AMES SALMONELLA TYPHIMURIUM, Strain/Indicator: TA1538, Metabolic Activation: RAT, LIVER, S-9, SODIUM PHENOBARBITAL, Method: STANDARD PLATE inactive; negative

Cc1ccc(N)c(O)c1
inactive: Test System: AMES SALMONELLA TYPHIMURIUM, Strain/Indicator: TA98, Metabolic Activation: HAMSTER LIVER S-9, AROCLOR 1254, Method: STANDARD PLATE inactive; negative | [5] inactive; negative | Test System: AMES SALMONELLA TYPHIMURIUM, Strain/Indicator: TA98, Metabolic Activation: RAT LIVER S-9, AROCLOR 1254, Method: STANDARD PLATE inactive; negative | Test System: AMES SALMONELLA TYPHIMURIUM, Strain/Indicator: TA100, Metabolic Activation: HAMSTER LIVER S-9, AROCLOR 1254, Method: STANDARD PLATE inactive; negative | Test System: AMES SALMONELLA TYPHIMURIUM, Strain/Indicator: TA100, Metabolic Activation: RAT LIVER S-9, AROCLOR 1254, Method: STANDARD PLATE inactive; negative
active: [6] active; positive | Test System: MOUSE LYMPHOMA, Strain/Indicator: L5178Y (TK+/TK-), Metabolic Activation: NONE, Method: SUSPENSION/PLATE active; positive. reevaluation of results: positive | Test System: MOUSE LYMPHOMA, Strain/Indicator: L5178Y (TK+/TK-), Metabolic Activation: RAT, LIVER, S-9, AROCLOR 1254, Method: SUSPENSION/PLATE active; positive. reevaluation of results: equivocal

Cn1c([N+](=O)[O-])nc2ncc(-c3ccccc3)cc21
active: Test System: AMES SALMONELLA TYPHIMURIUM, Strain/Indicator: TA98(1,8-DNP6), Metabolic Activation: NONE, Method: PREINCUBATION active; positive | Test System: AMES SALMONELLA TYPHIMURIUM, Strain/Indicator: TA98(NR), Metabolic Activation: NONE, Method: PREINCUBATION active; positive | Test System: AMES SALMONELLA TYPHIMURIUM, Strain/Indicator: TA98, Metabolic Activation: NONE, Method: PREINCUBATION active; positive | Test System: AMES SALMONELLA TYPHIMURIUM, Strain/Indicator: YG1024, Metabolic Activation: NONE, Method: PREINCUBATION active; positive

N#CC1CO1 (centres undefined)
active: Test System: UDS HUMAN MAMMARY EPITHELIAL CELLS, Strain/Indicator: THY INCORP, Metabolic Activation: NONE, Method: AUTORADIOGRAPHY active; positive
inactive: Test System: UDS PRIMARY RAT HEPATOCYTES, Strain/Indicator: THY INCORP, Metabolic Activation: NONE, Method: AUTORADIOGRAPHY inactive; negative
